Values of other authors as cited in paper PMC5979345, “Identification of an ACE-Inhibitory Peptide from Walnut Protein and Its Evaluation of the Inhibitory Mechanism” (International Journal of Molecular Sciences, 2018).

What was measured:
ACE [1] = settings: identified from Stichopus horrens
Method: To further evaluate the active mechanism of the novel ACEI peptide, the inhibition pattern of the peptide, EPNGLLLPQY, against ACE was investigated by the Line weaver-Burk plot analysis method. […] When the EPNGLLLPQY was added to the r ...

ACE [2] = settings: from walnut protein digested by neutral proteinase As1.398, 45 °C, 5 h, pH 7.0
Method: In the present study, the peptide EPNGLLLPQY was identified from the hydrolysate of walnut protein digested by […]. Moreover, there were several reports related to the peptides from walnut protein hydrolysates with ACE-inhibitory activity.

Substance | Inhibition pattern (ACE [1]) | ACE-inhibitory activity (in words) (ACE [2])
EVSQGRP [food-derived peptide identified from Stichopus horrens] | mixed-type of inhibition | –
LPGRPPIKPWPL | – | ACE-inhibitory peptides
SAAVGSP [food-derived peptide identified from Stichopus horrens] | mixed-type of inhibition | –
VSRHFASYAN [food-derived peptide identified from Stichopus horrens] | mixed-type of inhibition | –
WPERPPQIP | – | ACE-inhibitory peptides
